Our source for the kinase still bound, per cent of control values is the kinase profiling compilation of Christmann-Franck et al. (2016).

Assay in all cases: KINOMEscan competition binding
What all share (details): compound 10.0 µM

Test [1] concerns BMX (human), P51813 [V600E].
Test [2] deals with EGFR (human), P00533 [A750P; 747-749 del].
Test [3] relates to EGFR (human), P00533 [G719C].
The test system of test [4] is EGFR (human), P00533 [L858R].
For test [5], the system named is FGFR3 (human), P22607 [G697C].
FGFR3 (human), P22607 [G697C], sequence (P22607 whole entry G697C, looked up): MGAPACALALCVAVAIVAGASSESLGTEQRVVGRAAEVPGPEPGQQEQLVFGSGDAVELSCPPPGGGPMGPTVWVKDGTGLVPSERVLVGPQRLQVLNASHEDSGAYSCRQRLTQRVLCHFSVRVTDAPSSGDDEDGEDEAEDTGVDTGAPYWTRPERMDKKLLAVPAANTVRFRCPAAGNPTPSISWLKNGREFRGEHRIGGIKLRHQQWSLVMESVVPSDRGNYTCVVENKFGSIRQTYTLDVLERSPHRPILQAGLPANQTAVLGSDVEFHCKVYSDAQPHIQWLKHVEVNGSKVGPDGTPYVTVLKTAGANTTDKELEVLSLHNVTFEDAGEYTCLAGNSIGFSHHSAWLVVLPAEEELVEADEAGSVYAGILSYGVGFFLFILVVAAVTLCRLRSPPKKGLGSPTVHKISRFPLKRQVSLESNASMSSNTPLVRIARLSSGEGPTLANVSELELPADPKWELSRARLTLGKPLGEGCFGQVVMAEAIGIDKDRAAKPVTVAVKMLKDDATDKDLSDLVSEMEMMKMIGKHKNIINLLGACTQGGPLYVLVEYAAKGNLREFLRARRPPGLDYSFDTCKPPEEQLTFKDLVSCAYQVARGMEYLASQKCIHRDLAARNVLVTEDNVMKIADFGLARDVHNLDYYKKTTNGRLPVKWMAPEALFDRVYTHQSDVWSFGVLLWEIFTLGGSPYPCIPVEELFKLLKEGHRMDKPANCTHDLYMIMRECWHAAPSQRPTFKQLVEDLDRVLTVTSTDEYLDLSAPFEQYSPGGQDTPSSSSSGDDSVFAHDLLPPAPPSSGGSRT
Test [6] relates to FLT3 (human), P36888 [D835Y].
Test [7] relates to KIT (human), P10721 [A829P].
KIT (human), P10721 [A829P], sequence (P10721 whole entry A829P, looked up): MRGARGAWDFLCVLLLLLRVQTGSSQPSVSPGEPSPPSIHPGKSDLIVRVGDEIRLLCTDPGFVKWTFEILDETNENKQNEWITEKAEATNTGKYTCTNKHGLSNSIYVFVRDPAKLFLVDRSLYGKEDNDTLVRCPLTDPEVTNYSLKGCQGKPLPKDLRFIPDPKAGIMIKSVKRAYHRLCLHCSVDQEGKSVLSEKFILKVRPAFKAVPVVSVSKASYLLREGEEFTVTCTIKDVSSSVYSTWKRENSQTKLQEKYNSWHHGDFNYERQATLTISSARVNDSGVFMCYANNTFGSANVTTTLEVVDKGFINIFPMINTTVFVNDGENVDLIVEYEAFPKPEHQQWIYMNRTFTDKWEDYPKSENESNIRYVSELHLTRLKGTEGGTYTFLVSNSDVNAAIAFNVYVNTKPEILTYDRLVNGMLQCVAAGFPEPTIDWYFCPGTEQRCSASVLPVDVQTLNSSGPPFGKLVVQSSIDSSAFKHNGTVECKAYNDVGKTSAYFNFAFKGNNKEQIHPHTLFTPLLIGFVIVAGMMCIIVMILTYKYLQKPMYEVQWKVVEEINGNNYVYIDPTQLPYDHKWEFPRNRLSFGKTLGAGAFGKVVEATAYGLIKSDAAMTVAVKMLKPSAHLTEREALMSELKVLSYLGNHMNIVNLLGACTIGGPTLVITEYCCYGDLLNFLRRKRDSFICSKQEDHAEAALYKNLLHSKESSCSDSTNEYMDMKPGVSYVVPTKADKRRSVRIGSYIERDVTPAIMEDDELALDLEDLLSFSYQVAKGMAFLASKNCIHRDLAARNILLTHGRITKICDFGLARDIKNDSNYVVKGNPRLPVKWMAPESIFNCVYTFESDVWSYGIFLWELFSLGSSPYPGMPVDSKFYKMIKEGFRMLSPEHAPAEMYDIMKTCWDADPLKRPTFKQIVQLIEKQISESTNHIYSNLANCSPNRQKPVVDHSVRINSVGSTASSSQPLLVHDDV
Test [8] has as its system KIT (human), P10721 [D816H].
Test [9] relates to LRRK2 (human), Q5S007 [G2019S].
Test [10] concerns MET (human), P08581 [M1250T].
For test [11], the system named is PIK3CA (human), P42336 [E542K].
PIK3CA (human), P42336 [E542K], sequence (P42336 whole entry E542K, looked up): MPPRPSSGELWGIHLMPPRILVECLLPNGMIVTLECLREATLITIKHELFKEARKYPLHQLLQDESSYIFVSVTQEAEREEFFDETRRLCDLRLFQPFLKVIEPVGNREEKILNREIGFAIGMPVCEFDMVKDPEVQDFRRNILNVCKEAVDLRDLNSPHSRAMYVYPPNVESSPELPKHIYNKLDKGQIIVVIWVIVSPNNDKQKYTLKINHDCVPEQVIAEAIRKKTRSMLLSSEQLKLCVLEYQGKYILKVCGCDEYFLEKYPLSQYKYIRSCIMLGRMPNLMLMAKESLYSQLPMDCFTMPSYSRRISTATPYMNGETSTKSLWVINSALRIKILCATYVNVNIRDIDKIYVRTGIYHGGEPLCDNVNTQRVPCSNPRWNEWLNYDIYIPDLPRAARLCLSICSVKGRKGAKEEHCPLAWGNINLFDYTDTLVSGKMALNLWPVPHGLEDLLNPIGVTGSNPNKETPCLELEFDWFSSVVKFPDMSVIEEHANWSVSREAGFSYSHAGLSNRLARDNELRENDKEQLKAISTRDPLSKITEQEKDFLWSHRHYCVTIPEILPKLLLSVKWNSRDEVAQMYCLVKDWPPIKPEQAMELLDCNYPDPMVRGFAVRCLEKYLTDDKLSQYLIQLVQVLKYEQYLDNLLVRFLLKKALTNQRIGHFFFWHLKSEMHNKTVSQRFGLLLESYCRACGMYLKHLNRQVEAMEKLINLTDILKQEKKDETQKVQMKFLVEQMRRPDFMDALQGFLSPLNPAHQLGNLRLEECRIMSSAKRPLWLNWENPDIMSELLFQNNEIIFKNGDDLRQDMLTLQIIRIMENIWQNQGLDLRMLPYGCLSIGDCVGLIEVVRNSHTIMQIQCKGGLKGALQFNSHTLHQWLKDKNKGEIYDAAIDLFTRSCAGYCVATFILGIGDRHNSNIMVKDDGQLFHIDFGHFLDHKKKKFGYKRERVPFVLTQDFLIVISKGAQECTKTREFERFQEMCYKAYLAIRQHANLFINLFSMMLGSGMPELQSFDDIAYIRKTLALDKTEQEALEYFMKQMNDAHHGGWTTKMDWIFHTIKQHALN
Test [12] concerns PIK3CA (human), P42336 [H1047L].
PIK3CA (human), P42336 [H1047L], sequence (P42336 whole entry H1047L, looked up): as the sequence (P42336 whole entry E542K, looked up) above, with K542E, H1047L counted along it
Test [13] deals with PIK3CA (human), P42336 [M1043I].
PIK3CA (human), P42336 [M1043I], sequence (P42336 whole entry M1043I, looked up): as the sequence (P42336 whole entry E542K, looked up) above, with K542E, M1043I counted along it
Test [14] concerns RET (human), P07949 [V804L].
RET (human), P07949 [V804L], sequence (P07949 whole entry V804L, looked up): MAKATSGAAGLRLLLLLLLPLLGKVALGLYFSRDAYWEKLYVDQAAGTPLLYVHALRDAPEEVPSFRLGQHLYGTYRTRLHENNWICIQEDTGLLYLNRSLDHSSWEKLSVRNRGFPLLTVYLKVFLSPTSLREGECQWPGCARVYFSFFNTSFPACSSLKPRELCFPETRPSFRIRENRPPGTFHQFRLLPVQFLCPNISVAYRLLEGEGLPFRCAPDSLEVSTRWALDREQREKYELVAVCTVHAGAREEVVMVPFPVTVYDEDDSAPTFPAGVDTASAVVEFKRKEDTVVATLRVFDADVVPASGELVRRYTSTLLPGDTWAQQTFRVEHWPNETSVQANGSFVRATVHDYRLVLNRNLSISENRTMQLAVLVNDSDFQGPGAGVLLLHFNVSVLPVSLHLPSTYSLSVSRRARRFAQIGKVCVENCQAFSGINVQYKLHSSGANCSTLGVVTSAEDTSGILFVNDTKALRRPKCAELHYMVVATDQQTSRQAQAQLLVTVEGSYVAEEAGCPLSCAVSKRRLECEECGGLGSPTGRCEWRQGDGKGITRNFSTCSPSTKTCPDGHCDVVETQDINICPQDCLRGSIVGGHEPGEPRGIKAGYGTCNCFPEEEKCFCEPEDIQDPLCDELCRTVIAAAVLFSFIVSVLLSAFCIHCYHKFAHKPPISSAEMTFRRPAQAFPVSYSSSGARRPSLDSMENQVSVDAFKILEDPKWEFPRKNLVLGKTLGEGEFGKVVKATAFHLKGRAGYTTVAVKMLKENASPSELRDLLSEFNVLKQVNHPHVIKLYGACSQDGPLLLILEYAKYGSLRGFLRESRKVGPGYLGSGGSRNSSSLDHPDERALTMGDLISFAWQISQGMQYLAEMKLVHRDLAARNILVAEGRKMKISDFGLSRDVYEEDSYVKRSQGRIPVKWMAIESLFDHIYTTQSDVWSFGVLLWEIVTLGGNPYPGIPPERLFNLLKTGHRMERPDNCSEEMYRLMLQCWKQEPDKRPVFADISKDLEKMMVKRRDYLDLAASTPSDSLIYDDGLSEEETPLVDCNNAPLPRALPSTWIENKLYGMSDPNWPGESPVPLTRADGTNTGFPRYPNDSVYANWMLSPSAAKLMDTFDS

BMX (human), P51813 [V600E], sequence (P51813 whole entry, looked up, stated change not applied): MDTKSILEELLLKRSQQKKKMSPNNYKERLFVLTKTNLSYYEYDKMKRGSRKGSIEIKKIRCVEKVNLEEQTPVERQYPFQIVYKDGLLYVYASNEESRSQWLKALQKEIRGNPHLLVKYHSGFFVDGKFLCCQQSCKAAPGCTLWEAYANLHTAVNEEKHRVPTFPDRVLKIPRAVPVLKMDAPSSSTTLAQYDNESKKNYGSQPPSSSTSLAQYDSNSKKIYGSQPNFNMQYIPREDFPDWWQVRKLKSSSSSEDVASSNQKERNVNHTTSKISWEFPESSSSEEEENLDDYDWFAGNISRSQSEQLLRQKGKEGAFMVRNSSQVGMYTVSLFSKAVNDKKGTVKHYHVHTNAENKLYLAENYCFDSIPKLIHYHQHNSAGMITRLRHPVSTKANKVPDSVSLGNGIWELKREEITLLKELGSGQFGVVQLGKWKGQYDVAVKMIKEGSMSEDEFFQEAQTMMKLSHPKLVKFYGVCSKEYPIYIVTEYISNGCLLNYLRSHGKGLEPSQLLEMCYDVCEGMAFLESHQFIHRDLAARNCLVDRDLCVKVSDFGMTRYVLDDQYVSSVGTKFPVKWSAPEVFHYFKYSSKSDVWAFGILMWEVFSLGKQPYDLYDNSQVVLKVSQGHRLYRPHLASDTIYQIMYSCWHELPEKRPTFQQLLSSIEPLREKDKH
KIT (human), P10721 [D816H], sequence (P10721 whole entry D816H, looked up): as the sequence (P10721 whole entry A829P, looked up) above, with D816H, P829A counted along it

For `CCN1CCN(C(=O)Cc2ccc(Nc3ncc(F)c(Nc4ccc(C(=O)Nc5ccccc5Cl)cc4)n3)cc2)CC1`, the kinase still bound, per cent of control in test [1] came to 43%; in [2], 11%; in test [3] it was 46%; in test [4] it was 28%; in test [5], 21%; in test [6], 0.15%. The kinase still bound, per cent of control was 64% in test [7]; 25% in test [8]; 53% in test [9]; 11% in [10]; 84% in [11]; 100% in test [12]. In addition, the kinase still bound, per cent of control came out at 100% in [13] and 3.2% in [14].
As to `C=CC(=O)Nc1cccc(Nc2nc(N[C@H]3CC[C@H](N(C)C)CC3)nc3c2ncn3C(C)C)c1`, the kinase still bound, per cent of control in test [1] is 85%; in test [2], 76%; in test [3], 79%; in test [4], 99%; in test [5], 99%; in test [6] it was 0.85%. For the same molecule, the kinase still bound, per cent of control was 23% in [7]; 27% in test [8]; 45% in test [9]; 100% in [10]; 100% in [11]; 100% in test [12]. Besides, the kinase still bound, per cent of control in [13] worked out at 100%; in test [14], 80%.
`C=CC(=O)Nc1cc(NC(=O)c2ccc(C)c(NC(=O)c3ccno3)c2)cc(C(F)(F)F)c1`: the kinase still bound, per cent of control in test [1] worked out at 19%; in test [2] it was 100%; in [3], 94%; in test [4] it was 100%; in test [5], 91%; in [6], 100%. Further, the kinase still bound, per cent of control in test [7] worked out at 54%; in [8], 75%; in [9], 85%; in test [10], 86%; in [11], 88%; in [12] it was 73%. For the same molecule, the kinase still bound, per cent of control in [13] worked out at 93%; in test [14] it was 100%.
Take `COc1cc(N2CCN(C)CC2)ccc1Nc1nc(N)c(C(=O)c2c(Cl)cccc2Cl)s1`: the kinase still bound, per cent of control in [1] came out at 100%; in test [2], 100%; in test [3], 91%; in [4] it was 100%; in [5], 100%; in test [6] it was 100%. Further, the kinase still bound, per cent of control in test [7] came to 81%; in [8], 86%; in test [9], 97%; in test [10], 100%; in test [11], 100%; in test [12], 100%. The kinase still bound, per cent of control in test [13] and in test [14] was 100% each time.
In the case of `CN(C)C/C=C/C(=O)Nc1cccc(Nc2ncc3c(n2)N(C)c2ccccc2C(=O)N3C)c1`, the kinase still bound, per cent of control in [1] worked out at 59%; in [2], 71%; in test [3], 14%; in test [4], 73%; in test [5] it was 12%; in test [6] it was 1.4%. Besides, the kinase still bound, per cent of control was found to be 40% in [7]; 33% in [8]; 6.1% in [9]; 43% in test [10]; 39% in [11]; 16% in test [12]. The figures for the kinase still bound, per cent of control in test [13] and in test [14] were 39% and 0.15%, respectively.
On to `C[C@@H](Oc1cc(-n2cnc3ccc(CN4CCN(C)CC4)cc32)sc1C(N)=O)c1ccccc1C(F)(F)F`, for which the kinase still bound, per cent of control in test [1] came out at 58%; in test [2], 81%; in [3] it was 100%; in [4] it was 86%; in [5], 75%; in [6], 21%. Also, the kinase still bound, per cent of control in [7] was 29%; in test [8], 40%; in test [9], 40%; in test [10], 93%; in test [11], 91%; in test [12] it was 16%. The figures for the kinase still bound, per cent of control in test [13] and in test [14] were 63% and 100%, respectively.
Regarding `COc1cc2ncnc(-n3nc(-c4ccccn4)nc3N)c2cc1OC`, the kinase still bound, per cent of control was 23% in test [1]; 44% in [2]; 24% in test [3]; 55% in [4]; 100% in [5]; 3.4% in test [6]. In addition, the kinase still bound, per cent of control was found to be 33% in test [7]; 12% in test [8]; 41% in test [9]; 44% in [10]; 48% in test [11]; 17% in test [12]. The values for the kinase still bound, per cent of control in test [13] and in [14] were 36% and 54%, respectively.
For `COc1cc(C(=O)N2CCC(N3CCN(C)CC3)CC2)ccc1Nc1ncc2c(n1)N(C)c1ccccc1C(=O)N2C`, the kinase still bound, per cent of control in [1] amounted to 100%; in [2], 78%; in test [3], 100%; in test [4], 79%; in test [5], 85%; in test [6], 100%. Also, the kinase still bound, per cent of control turned out to be 100% in test [7]; 100% in test [8]; 5% in test [9]; 96% in test [10]; 77% in test [11]; 20% in test [12]. The values for the kinase still bound, per cent of control in [13] and in test [14] were 65% and 89%, respectively.
